Reference: the NIST ThermoML archive (doi:10.1016/j.jct.2015.04.027)
± gives the expanded uncertainty stated by the source.

Experiment: xn = mol fraction of the nth substance listed
Conditions: 100 kPa, Liquid; for viscosity: Falling or rolling sphere viscometry; for mass density: Vibrating tube method

CN(C)C(=[NH2+])N(C)C.c1c[n-]cn1 [1,1,3,3-tetramethylguanidinium imidazol-1-ide] + CO
Conditions | mass density, 293.15 K [kg/m3] | mass density, 298.15 K [kg/m3] | mass density, 303.15 K [kg/m3] | mass density, 308.15 K [kg/m3] | mass density, 313.15 K [kg/m3] | viscosity, 293.15 K [mPa·s] | viscosity, 298.15 K [mPa·s] | viscosity, 303.15 K [mPa·s] | viscosity, 308.15 K [mPa·s] | viscosity, 313.15 K [mPa·s]
x1 = 0.0501 | 840.28 ± 0.82 | 835.36 ± 0.83 | 830.44 ± 0.83 | 825.51 ± 0.83 | 820.57 ± 0.84 | 0.905 ± 0.02 | 0.829 ± 0.019 | 0.765 ± 0.017 | 0.709 ± 0.016 | 0.659 ± 0.015
x1 = 0.1005 | 872.86 ± 0.5 | 868.04 ± 0.51 | 863.19 ± 0.51 | 858.35 ± 0.51 | 853.49 ± 0.55 | 1.272 ± 0.028 | 1.108 ± 0.025 | 1.014 ± 0.022 | 0.931 ± 0.021 | 0.859 ± 0.019
x1 = 0.1957 | 912.69 ± 0.36 | 907.98 ± 0.37 | 903.25 ± 0.37 | 898.51 ± 0.37 | 893.76 ± 0.41 | 1.979 ± 0.043 | 1.768 ± 0.038 | 1.592 ± 0.035 | 1.442 ± 0.031 | 1.314 ± 0.029
x1 = 0.2953 | 938.06 ± 0.25 | 933.41 ± 0.27 | 928.74 ± 0.27 | 924.08 ± 0.27 | 919.38 ± 0.29 | 2.761 ± 0.06 | 2.423 ± 0.053 | 2.148 ± 0.047 | 1.918 ± 0.041 | 1.724 ± 0.037
x1 = 0.393 | 954.84 ± 0.21 | 950.24 ± 0.22 | 945.62 ± 0.22 | 941 ± 0.22 | 936.36 ± 0.24 | 3.723 ± 0.081 | 3.212 ± 0.07 | 2.804 ± 0.061 | 2.468 ± 0.053 | 2.192 ± 0.047
x1 = 0.5005 | 968.24 ± 0.18 | 963.68 ± 0.2 | 959.1 ± 0.2 | 954.53 ± 0.2 | 949.94 ± 0.22 | 4.794 ± 0.1 | 4.098 ± 0.089 | 3.53 ± 0.08 | 3.077 ± 0.067 | 2.702 ± 0.059
x1 = 0.6431 | 980.21 ± 0.19 | 975.69 ± 0.2 | 971.16 ± 0.2 | 966.63 ± 0.2 | 962.09 ± 0.21 | 6.21 ± 0.14 | 5.186 ± 0.11 | 4.369 ± 0.095 | 3.783 ± 0.082 | 3.274 ± 0.071
x1 = 0.7815 | 988.47 ± 0.2 | 983.99 ± 0.21 | 979.49 ± 0.21 | 975 ± 0.21 | 970.51 ± 0.22 | 7.421 ± 0.16 | 6.122 ± 0.13 | 5.141 ± 0.11 | 4.38 ± 0.096 | 3.777 ± 0.083
x1 = 0.8994 | 993.77 ± 0.23 | 989.31 ± 0.23 | 984.84 ± 0.23 | 980.37 ± 0.23 | 975.91 ± 0.23 | 8.342 ± 0.18 | 6.826 ± 0.15 | 5.692 ± 0.12 | 4.819 ± 0.11 | 4.134 ± 0.091
x1 = 1 | 997.25 ± 0.25 | 992.8 ± 0.25 | 988.35 ± 0.25 | 983.9 ± 0.25 | 979.46 ± 0.25 | 8.952 ± 0.2 | 7.287 ± 0.16 | 6.044 ± 0.13 | 5.097 ± 0.11 | 4.358 ± 0.096
